Test results: patent US20200009135A1, “THERAPEUTIC APPLICATIONS OF MALT1 INHIBITORS” (MEDIVIR AB, priority 2017, published 2020)

Experiments:
[1] = test system: CD4+FoxP3+CD25+ cell induction; assay: Development of human T-regulatory cells from naive CD4 T cells (FoxP3+CD25+ induction); assay type: cell-based; conditions: 3 donors, 0.4 μM, 0.4 μM and 4.0 μM
Procedure: Naïve CD4 T cell sorting and stimulation for regulatory T cell development A flat-bottom 48 well plate was coated with 250 μl of purified functional grade anti-human CD3 at 2 μg/ml in PBS. The plate was sealed and incubated at 37° C. for one hour. Peripheral blood mononuclear cells (PBMC) were isolated from human leucocyte reduction system cones by differential density centrifugation using Ficoll-PLUS (GE Healthcare). Cells were washed three times in RPMI+1% HI-FCS+1% penicillin/streptomycin (P/S) (1% RPMI), then resuspended at a concentration of 200×10^6/ml of 1% RPMI. An aliquot of cells was set aside for single colour controls, and the sample was stained at a dilution of 1:20 with anti-human CD4, anti-human CD45RA, anti-human CD25, and anti-human CD127 (antibodies from BioLegend and eBioscience) for 20 minutes on ice. Following the incubation, the stained PBMC were washed and resuspended at 50×10^6/ml in PBS+1% HI-FCS. Cells were sorted on a BD […] high speed cell sorter for the phenotype CD4+CD45RA+CD127+CD25-. Following the sort, cells were resuspended at 4×10^6/ml in pre-warmed cRPMI containing […] human IL-2 (final concentration 100 U/ml). […]
Staining Regulatory T Cell Cultures Induced regulatory T cell cultures were washed and counted. […]
CD4+ naïve T cells cultured for 10 days were analysed for their expression of FoxP3 and CD25. […]

[2] = test system: CMV-specific (NLV+) CD8+ Teff cells expressing IFNγ or TNFα; assay: Human whole blood stimulated with (MTTE)3-CMV vaccine; assay type: cell-based; conditions: 4 μM with 120 nM (MTTE)3-CMV vaccine, 6 hours, three donors
Procedure: Freshly drawn whole blood from healthy volunteers (2 mL) in a tube was incubated under rotation at 37° C. for 6 hours. […]. After 2 hours Brefeldin-A was added to allow intra-cellular analysis of cytokines (IFNγ and TNFα) by flow-cytometry. Antigen-specific CD8+ T-cells were identified by fluorescence-conjugated tetrameric complexes of HLA-A2 molecules loaded with the NLV peptide epitope ([…]) of CMV pp65.

[3] = test system: Treg suppression of CD4+CD25- effector T cell proliferation; assay: Treg suppressive activity (suppression of CD4+CD25- effector T cell proliferation); assay type: cell-based, human
Procedure: PBMC were isolated from fresh blood by differential density centrifugation using Ficoll-PLUS (GE Healthcare). Cells were washed three times in RPMI+1% heat-inactivated foetal calf serum (HI-FCS)+1% penicillin/streptomycin (P/S) (1% RPMI), then resuspended in PBS+2% heat inactivated foetal calf serum (HI-FCS)+2.0 mM EDTA (isolation buffer). CD4+CD25- and CD4+CD25+ T cells were isolated, per the manufacturer's instructions (Miltenyi CD4+CD25+ Regulatory T cell Isolation Kit, human). Isolated CD4+CD25− T cells were then labeled with Cell Proliferation Dye eFluor® 450 per manufacturer's instructions (eBioscience). An aliquot of cells was stained with anti-CD3 and anti-CD4 (BioLegend and eBioscience) to assess cell purity and dye labeling by flow cytometry. Cultures were plated in cRPMI, with […] CD4+CD25− cells per well. […]
FIG. 2. The proliferation of CD4+CD25− T cells, purified from a different donor and labelled with Cell Proliferation Dye eFluor® 450, was assessed following a 4 day activation with anti-CD3/CD28 beads. There was a robust proliferation of the cells, and they were readily distinguished from unlabeled cultured cells (generated in the 10 day culture period).
The number of proliferating CD4+CD25− “effector” T cells was determined at each ratio (1:4, 1:2, 1:1) of these cells to the cultured cells generated in the previous 10 day culture period (cultured “Treg”). […]

[4] = test system: panel of human cancer cell lines; assay: Human cancer cell line panel (Oncolead), GI50, 72 hours; assay type: cell-based

Structure (SMILES): CO[C@@H](C)c1c(NC(=O)Nc2cnc(-n3nccn3)c(Cl)c2)cnc2cc(Cl)nn12 [Example 2, (S)-1-(5-chloro-6-(2H-1,2,3-triazol-2-yl)pyridin-3-yl)-3-(2-chloro-7-(1-methoxyethyl)pyrazolo[1,5-a]pyrimidin-6-yl)urea]
- generation of a Treg phenotype and function ([1]; highest degree of inhibition with 4.0 μM): inhibit
- CD4+FoxP3+CD25+ cell induction ([1]; IL-2+TGFβ, 10 days, highest concentration most effective): robust inhibition
- percentage of activated antigen-specific IFNγ+ and TNFα+ CD8+ T cells [2]: increase
- Treg suppression of effector cell proliferation, donor 1 ([3]; donor 1, 0.4 μM, 0.4 μM and 4.0 μM): reduced
- Treg suppression of proliferation of responding effector T cells, donors 2 and 3 ([3]; donors 2 and 3, increasing concentrations): reduced by increasing concentrations
- antiproliferative effect on the majority of cell lines tested ([4]; 81 solid and 12 hematological cancer cell lines, 50 μM to 0.05 nM): essentially no antiproliferative effect
- GI50 ([4]; Homo sapiens, WSU-NHL cell line, not confirmed in follow-up assay): < 1 µM
